In ChEMBL document CHEMBL1201862, “PubChem BioAssay data set” (2004):
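The compound was tested at five concentrations on cells cultured in 96-well plates, with a 48-hour exposure period. GI50 marks 50% less growth.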 Calls of active or inactive are those of the source. Cut-off read from the data, not from the text of the source: active = GI50 up to about 1.1 µM and inactive = higher.

Columns and labels:
Experiment in all cases: NCI-60 cell line screen, 48 h
HCT-116 = tested on: HCT-116
HOP-62 = tested on: HOP-62
HOP-92 = tested on: HOP-92
HT-29 = tested on: HT-29
KM12 = tested on: KM12
LOX IMVI = tested on: LOX IMVI
Malme-3M = tested on: Malme-3M
OVCAR-4 = tested on: OVCAR-4
RXF 393 = tested on: RXF 393
SK-MEL-28 = tested on: SK-MEL-28
SK-MEL-2 = tested on: SK-MEL-2
SK-MEL-5 = tested on: SK-MEL-5
TK-10 = tested on: TK-10
U-251 = tested on: U-251
UACC-62 = tested on: UACC-62
ACHN = tested on: ACHN
HCC 2998 = tested on: HCC 2998
K562 = tested on: K562
NCI-H522 = tested on: NCI-H522
SF-539 = tested on: SF-539

| SMILES | GI50 (HCT-116) | GI50 (HOP-62) | GI50 (HOP-92) | GI50 (HT-29) | GI50 (KM12) | GI50 (LOX IMVI) | GI50 (Malme-3M) | GI50 (OVCAR-4) | GI50 (RXF 393) | GI50 (SK-MEL-28) | GI50 (SK-MEL-2) | GI50 (SK-MEL-5) | GI50 (TK-10) | GI50 (U-251) | GI50 (UACC-62) | GI50 (ACHN) | GI50 (HCC 2998) | GI50 (K562) | GI50 (NCI-H522) | GI50 (SF-539) |
| --- | --- | --- | --- | --- | --- | --- | --- | --- | --- | --- | --- | --- | --- | --- | --- | --- | --- | --- | --- | --- |
| Nc1nc(Cl)nc2c1ncn2C1CCC(CO)O1 (stereo unspecified) | > 100 µM (inactive) | > 100 µM (inactive) | > 100 µM (inactive) | > 100 µM (inactive) | > 100 µM (inactive) | > 100 µM (inactive) | > 100 µM (inactive) | > 100 µM (inactive) | > 100 µM (inactive) | > 100 µM (inactive) | > 100 µM (inactive) | > 100 µM (inactive) | > 100 µM (inactive) | > 100 µM (inactive) | > 100 µM (inactive) |  |  |  |  |  |
| O=c1ccc2nc3cc(Br)ccc3sc-2c1 | > 100 µM (inactive) | > 100 µM (inactive) | > 100 µM (inactive) | > 100 µM (inactive) | > 100 µM (inactive) |  | > 100 µM (inactive) | 29.4 µM (inactive) |  | > 100 µM (inactive) | > 100 µM (inactive) | 62.8 µM (inactive) | > 100 µM (inactive) | > 100 µM (inactive) | 30.9 µM (inactive) | 57 µM (inactive) | > 100 µM (inactive) | 22.4 µM (inactive) | 56.8 µM (inactive) | > 100 µM (inactive) |
| CCCCC(=O)c1c(O)nc2sccn2c1=O | > 10 µM (inactive) | > 10 µM (inactive) |  | > 10 µM (inactive) | > 10 µM (inactive) | > 10 µM (inactive) | > 10 µM (inactive) | > 10 µM (inactive) | > 10 µM (inactive) | > 10 µM (inactive) | > 10 µM (inactive) | > 10 µM (inactive) | > 10 µM (inactive) | > 10 µM (inactive) | > 10 µM (inactive) | > 10 µM (inactive) | > 10 µM (inactive) |  | > 10 µM (inactive) | > 10 µM (inactive) |
| CSc1nc(Cl)c2c(n1)Sc1ncnn1C2O (stereo unspecified) | 5.12 µM (inactive) | 21.8 µM (inactive) | 12.6 µM (inactive) | 12.9 µM (inactive) |  | 6.37 µM (inactive) | 3.18 µM (inactive) | 15 µM (inactive) | 2.58 µM (inactive) | 29.2 µM (inactive) | 17.4 µM (inactive) |  | 17.2 µM (inactive) | 14.9 µM (inactive) | 12.6 µM (inactive) | 4.29 µM (inactive) | 13.6 µM (inactive) | 3.62 µM (inactive) | 2.43 µM (inactive) | 0.318 µM (active) |
| O=C(O)C12CCCC(CCC1)C2 | > 100 µM (inactive) | > 100 µM (inactive) | > 100 µM (inactive) | > 100 µM (inactive) | > 100 µM (inactive) | > 100 µM (inactive) | > 100 µM (inactive) | > 100 µM (inactive) | > 100 µM (inactive) | > 100 µM (inactive) | > 100 µM (inactive) | > 100 µM (inactive) | > 100 µM (inactive) | > 100 µM (inactive) | > 100 µM (inactive) | > 100 µM (inactive) |  | > 100 µM (inactive) | > 100 µM (inactive) | > 100 µM (inactive) |
| CCCCn1/c(=N/C(=S)N(C)C)ss/c1=N\C(=S)N(C)C | > 100 µM (inactive) | > 100 µM (inactive) | > 100 µM (inactive) | > 100 µM (inactive) | > 100 µM (inactive) | > 100 µM (inactive) | > 100 µM (inactive) | > 100 µM (inactive) | > 100 µM (inactive) | > 100 µM (inactive) | > 100 µM (inactive) |  | 6.19 µM (inactive) | > 100 µM (inactive) | > 100 µM (inactive) | > 100 µM (inactive) | > 100 µM (inactive) | > 100 µM (inactive) |  | > 100 µM (inactive) |
| Cc1ccc2c(c1)C(=O)N(N(C)C)CC(=O)N2 | > 100 µM (inactive) | > 100 µM (inactive) | > 100 µM (inactive) | > 100 µM (inactive) | > 100 µM (inactive) | > 100 µM (inactive) | > 100 µM (inactive) | > 100 µM (inactive) |  | > 100 µM (inactive) | > 100 µM (inactive) | > 100 µM (inactive) | > 100 µM (inactive) | > 100 µM (inactive) | > 100 µM (inactive) | > 100 µM (inactive) | > 100 µM (inactive) | > 100 µM (inactive) | > 100 µM (inactive) | > 100 µM (inactive) |
| COc1cc(C2c3cc4c(cc3[C@@H](Nc3ccc5c(c3)OCO5)C3COC(=O)[C@H]23)OCO4)cc(OC)c1O (stereo partly specified) | 0.74 µM (active) | 0.177 µM (active) | 0.424 µM (active) | 1.24 µM (inactive) | 1.79 µM (inactive) | 0.456 µM (active) | 1.42 µM (inactive) |  | 1.09 µM (active) | 3.43 µM (inactive) | 2.4 µM (inactive) | 0.63 µM (active) |  | 0.185 µM (active) | 0.322 µM (active) |  | 1.42 µM (inactive) | 0.721 µM (active) | 1.06 µM (active) | 0.324 µM (active) |
| CC1(C)OC2CC(=O)OCC23C1CC(=O)C1(C)C3CCC2(C)C(c3ccoc3)OC(=O)C3OC321 (stereo unspecified) | > 125 µM (inactive) | > 125 µM (inactive) |  | > 125 µM (inactive) | > 125 µM (inactive) | > 125 µM (inactive) | 123 µM (inactive) | > 125 µM (inactive) | > 117 µM (inactive) | > 125 µM (inactive) | > 125 µM (inactive) | > 125 µM (inactive) |  | > 125 µM (inactive) | > 125 µM (inactive) |  | > 125 µM (inactive) | 78.9 µM (inactive) | > 125 µM (inactive) | > 117 µM (inactive) |
| c1ccc2c(c1)SP1Sc3ccccc3P21 (stereo unspecified) | > 80 µM (inactive) | > 100 µM (inactive) | > 100 µM (inactive) | 74.6 µM (inactive) | > 100 µM (inactive) | > 83.6 µM (inactive) | > 100 µM (inactive) | 72.3 µM (inactive) | 52.7 µM (inactive) | > 90.4 µM (inactive) | > 80.7 µM (inactive) | > 100 µM (inactive) |  | > 100 µM (inactive) | > 85.1 µM (inactive) |  | 90.6 µM (inactive) | > 87.3 µM (inactive) | 39.6 µM (inactive) | > 100 µM (inactive) |
| COc1ccc(C2CC(c3c(O)ccc4ccccc34)=NN2)cc1OC (stereo unspecified) |  | 3.86 µM (inactive) | 3.7 µM (inactive) | 1.89 µM (inactive) | 3.52 µM (inactive) |  | 4.02 µM (inactive) | 6.03 µM (inactive) | 7.6 µM (inactive) | 5.16 µM (inactive) | 6 µM (inactive) | 2.82 µM (inactive) | 3.91 µM (inactive) | 2.7 µM (inactive) | 3.29 µM (inactive) | 1.86 µM (inactive) | 2.22 µM (inactive) | 4.38 µM (inactive) | 1.82 µM (inactive) | 4.27 µM (inactive) |
| CC(C)(C)[Si](C)(C)OCC1OC(n2cnc3c(N)ncnc32)CC1O (stereo unspecified) | > 100 µM (inactive) | 92.7 µM (inactive) |  | > 100 µM (inactive) | 39.6 µM (inactive) | > 100 µM (inactive) | > 100 µM (inactive) | 71.4 µM (inactive) | 20.6 µM (inactive) | > 100 µM (inactive) | 56.1 µM (inactive) | 35.6 µM (inactive) | > 100 µM (inactive) | > 100 µM (inactive) | 36.9 µM (inactive) |  |  | 21.8 µM (inactive) |  |  |
| CNC(=O)CNC(=O)CCC(=O)N(C)C | > 100 µM (inactive) | > 100 µM (inactive) | > 100 µM (inactive) | > 100 µM (inactive) | > 100 µM (inactive) | > 100 µM (inactive) | > 100 µM (inactive) |  |  | > 100 µM (inactive) | > 100 µM (inactive) | > 100 µM (inactive) | > 100 µM (inactive) | > 100 µM (inactive) | > 100 µM (inactive) | > 100 µM (inactive) | > 100 µM (inactive) | > 100 µM (inactive) | > 100 µM (inactive) | > 100 µM (inactive) |
| [O-][n+]1c2c([n+]([O-])c3ccccc31)-c1cccc3cccc-2c13 | > 100 µM (inactive) |  | 81.3 µM (inactive) | > 100 µM (inactive) | > 100 µM (inactive) | 63 µM (inactive) |  | > 100 µM (inactive) | 21.2 µM (inactive) |  |  | > 100 µM (inactive) | > 100 µM (inactive) | 43 µM (inactive) |  | > 100 µM (inactive) | > 100 µM (inactive) | > 100 µM (inactive) | 65.9 µM (inactive) |  |
| CC(C)C[C@@H](NC(=O)[C@@H](Cc1cccc2ccccc12)NC(=O)N1CCOCC1)B(O)O | 33.2 µM (inactive) | > 100 µM (inactive) | 37.1 µM (inactive) | 59.4 µM (inactive) | > 100 µM (inactive) | 54.6 µM (inactive) |  | > 100 µM (inactive) |  | 25.2 µM (inactive) | 37 µM (inactive) |  | 31.9 µM (inactive) | > 100 µM (inactive) | 63.1 µM (inactive) | 66.1 µM (inactive) | > 100 µM (inactive) | 57.9 µM (inactive) |  | 43.4 µM (inactive) |
| CN(C)CCCNC(=O)N/N=C/c1ccccn1 | > 10 µM (inactive) | > 10 µM (inactive) | > 10 µM (inactive) | > 10 µM (inactive) | > 10 µM (inactive) | > 10 µM (inactive) | > 10 µM (inactive) | > 10 µM (inactive) | > 10 µM (inactive) | > 10 µM (inactive) |  | > 10 µM (inactive) | > 10 µM (inactive) |  | > 10 µM (inactive) | > 10 µM (inactive) | > 10 µM (inactive) | > 10 µM (inactive) | > 10 µM (inactive) | > 10 µM (inactive) |
